Assays:
α-chymotrypsin = assay: Serum stability assay: incubation with α‐chymotrypsin; type: in vitro ADME; details: α-chymotrypsin (0.5 μg/mL) in PBS, α-chymotrypsin 0.5 μg mL−1 in PBS, peptide 0.3 mM from DMSO stock, RT, HPLC 220 nm vs caffeine internal standard, duplicate, read-out: peptide remaining intact after 6 h of incubation with α‐chymotrypsin
Description: Serum stability assay: Each peptide was dissolved in PBS (300 μL) from a DMSO stock to a final concentration of 0.3 mM. This PBS contained α‐chymotrypsin (0.5 μg mL^−1) and caffeine as an internal standard. Peptides were incubated at RT, and at each time point, an aliquot (30 μL) of the mixture was removed, snap frozen, thawed and centrifuged, and the supernatant was analysed by HPLC. Peptide degradation was monitored by comparing the integration of the peptide peak against the internal standard at […]. Experiments were performed in duplicate.

[1] = Circular dichroism helicity; type: physicochemical; details: CD, MRE222 vs theoretical maximum; PBS (50 mM)/acetonitrile 95:5, pH 7.4, 20 °C; average of three scans
Description: Each purified peptide was dissolved in phosphate buffer (PBS; 50 mM)/acetonitrile (95:5, pH 7.4) and its circular dichroism spectrum was recorded.
Circular dichroism: CD spectra were obtained on a Chirascan CD spectrometer at 20 °C (1 mm path length, 260–190 nm, bandwidth 1.0 nm, response time 0.5 s, step resolution 1.0 nm) Each spectrum is the average of three scans. Peptides were dissolved in PBS (50 mM)/acetonitrile (95:5, pH 7.4) at 20 °C. The helicity was calculated as previously reported19b by comparing mean residue ellipticity at 222 nm (MRE222) to the theoretical maximum as calculated from the formula [Eq. (1), n=number of amino acid residues] described by Forood et al.21 (1) MRE222=-40000×(1-2.5/n)
Spectra were obtained at several concentrations ([…]).

SMILES | remaining at 6 h, 0.3 mM (α-chymotrypsin) | Helicity [1]
C=CCCC[C@](C)(NC(=O)[C@H](Cc1ccccc1)NC(=O)[C@@H](NC(=O)[C@H](CCC(=O)O)NC(C)=O)[C@@H](C)O)C(=O)N[C@@H](CC(=O)O)C(=O)N[C@@H](CC(C)C)C(=O)N[C@@H](Cc1c[nH]c2ccccc12)C(=O)N[C@@H](CCCNC(=N)N)C(=O)N[C@@H](CC(C)C)C(=O)N[C@@H](CC(C)C)C(=O)N[C@@H](CCN=[N+]=[N-])C(=O)N[C@@H](CCC(=O)O)C(=O)N[C@@H](CC(N)=O)C(N)=O [SP0] | 17% | 52%
CC(=O)N[C@@H](CCC(=O)O)C(=O)N[C@H](C(=O)N[C@@H](Cc1ccccc1)C(=O)N[C@@]1(C)CCCC=CCCC[C@H](OC(=O)[C@@H](N)CCCCN)c2cn(nn2)CC[C@@H](C(=O)N[C@@H](CCC(=O)O)C(=O)N[C@@H](CC(N)=O)C(N)=O)NC(=O)[C@H](CC(C)C)NC(=O)[C@H](CC(C)C)NC(=O)[C@H](CCCNC(=N)N)NC(=O)[C@H](Cc2c[nH]c3ccccc23)NC(=O)[C@H](CC(C)C)NC(=O)[C@H](CC(=O)O)NC1=O)[C@@H](C)O [SP1 (A)] | 82% | 53%
CC(=O)N[C@@H](CCC(=O)O)C(=O)N[C@H](C(=O)N[C@@H](Cc1ccccc1)C(=O)N[C@@]1(C)CCCC=CCCC[C@H](OC(=O)[C@@H](N)CCCCN)c2cn(nn2)CC[C@@H](C(=O)N[C@@H](CCC(=O)O)C(=O)N[C@@H](CC(N)=O)C(N)=O)NC(=O)[C@H](CC(C)C)NC(=O)[C@H](CC(C)C)NC(=O)[C@H](CCCNC(=N)N)NC(=O)[C@H](Cc2c[nH]c3ccccc23)NC(=O)[C@H](CC(C)C)NC(=O)[C@H](CC(=O)O)NC1=O)[C@@H](C)O [SP1 (B)] | – | 31%
CC(=O)N[C@@H](CCC(=O)O)C(=O)N[C@H](C(=O)N[C@@H](Cc1ccccc1)C(=O)N[C@@]1(C)CCCC=CCCC[C@H](OC(=O)[C@H](CCCCN)NC(=O)[C@@H](N)CCCCN)c2cn(nn2)CC[C@@H](C(=O)N[C@@H](CCC(=O)O)C(=O)N[C@@H](CC(N)=O)C(N)=O)NC(=O)[C@H](CC(C)C)NC(=O)[C@H](CC(C)C)NC(=O)[C@H](CCCNC(=N)N)NC(=O)[C@H](Cc2c[nH]c3ccccc23)NC(=O)[C@H](CC(C)C)NC(=O)[C@H](CC(=O)O)NC1=O)[C@@H](C)O [SP1‐K (A)] | – | 55%
CC(=O)N[C@@H](CCC(=O)O)C(=O)N[C@H](C(=O)N[C@@H](Cc1ccccc1)C(=O)N[C@@]1(C)CCCC=CCCC[C@H](OC(=O)[C@H](CCCCN)NC(=O)[C@@H](N)CCCCN)c2cn(nn2)CC[C@@H](C(=O)N[C@@H](CCC(=O)O)C(=O)N[C@@H](CC(N)=O)C(N)=O)NC(=O)[C@H](CC(C)C)NC(=O)[C@H](CC(C)C)NC(=O)[C@H](CCCNC(=N)N)NC(=O)[C@H](Cc2c[nH]c3ccccc23)NC(=O)[C@H](CC(C)C)NC(=O)[C@H](CC(=O)O)NC1=O)[C@@H](C)O [SP1‐K (B)] | – | 31%
CC(=O)N[C@@H](CCC(=O)O)C(=O)N[C@H](C(=O)N[C@@H](Cc1ccccc1)C(=O)N[C@@]1(C)CCCC=CCCC[C@@H](OC(=O)[C@@H](N)CCCCN)c2cn(nn2)CC[C@@H](C(=O)N[C@@H](CCC(=O)O)C(=O)N[C@@H](CC(N)=O)C(N)=O)NC(=O)[C@H](CC(C)C)NC(=O)[C@H](CC(C)C)NC(=O)[C@H](CCCNC(=N)N)NC(=O)[C@H](Cc2c[nH]c3ccccc23)NC(=O)[C@H](CC(C)C)NC(=O)[C@H](CC(=O)O)NC1=O)[C@@H](C)O [SP2 (A)] | – | 67%

The next lines start with the values.

remaining at 6 h, 0.3 mM (α-chymotrypsin) | Helicity [1] | SMILES
– | 35% | CC(=O)N[C@@H](CCC(=O)O)C(=O)N[C@H](C(=O)N[C@@H](Cc1ccccc1)C(=O)N[C@@]1(C)CCCC=CCCC[C@@H](OC(=O)[C@@H](N)CCCCN)c2cn(nn2)CC[C@@H](C(=O)N[C@@H](CCC(=O)O)C(=O)N[C@@H](CC(N)=O)C(N)=O)NC(=O)[C@H](CC(C)C)NC(=O)[C@H](CC(C)C)NC(=O)[C@H](CCCNC(=N)N)NC(=O)[C@H](Cc2c[nH]c3ccccc23)NC(=O)[C@H](CC(C)C)NC(=O)[C@H](CC(=O)O)NC1=O)[C@@H](C)O [SP2 (B)]
– | 65% | CC(=O)N[C@@H](CCC(=O)O)C(=O)N[C@H](C(=O)N[C@@H](Cc1ccccc1)C(=O)N[C@@]1(C)CCCC=CCCC[C@@H](OC(=O)[C@H](CCCCN)NC(=O)[C@@H](N)CCCCN)c2cn(nn2)CC[C@@H](C(=O)N[C@@H](CCC(=O)O)C(=O)N[C@@H](CC(N)=O)C(N)=O)NC(=O)[C@H](CC(C)C)NC(=O)[C@H](CC(C)C)NC(=O)[C@H](CCCNC(=N)N)NC(=O)[C@H](Cc2c[nH]c3ccccc23)NC(=O)[C@H](CC(C)C)NC(=O)[C@H](CC(=O)O)NC1=O)[C@@H](C)O [SP2‐K (A)]
– | 36% | CC(=O)N[C@@H](CCC(=O)O)C(=O)N[C@H](C(=O)N[C@@H](Cc1ccccc1)C(=O)N[C@@]1(C)CCCC=CCCC[C@@H](OC(=O)[C@H](CCCCN)NC(=O)[C@@H](N)CCCCN)c2cn(nn2)CC[C@@H](C(=O)N[C@@H](CCC(=O)O)C(=O)N[C@@H](CC(N)=O)C(N)=O)NC(=O)[C@H](CC(C)C)NC(=O)[C@H](CC(C)C)NC(=O)[C@H](CCCNC(=N)N)NC(=O)[C@H](Cc2c[nH]c3ccccc23)NC(=O)[C@H](CC(C)C)NC(=O)[C@H](CC(=O)O)NC1=O)[C@@H](C)O [SP2‐K (B)]
